Legend:
[1] = tested on: HXB2-strain of HIV in MT4 cells; experiment: Antiviral assay: protection of HIV-infected MT4 cells from cell death (MTT); assay type: cell-based; conditions: Human immunodeficiency virus 1; MT4 cells infected with HXB2-strain of HIV, MTT viability
Experimental: Anti-HIV antiviral activity was assessed using an adaptation of the method of Pauwels et al. {Pauwels et al., 1988, J Virol Methods 20:309-321}. The method is based on the ability of compounds to protect HIV-infected T lymphoblastoid cells (MT4 cells) from cell-death mediated by the infection. The endpoint of the assay was calculated as the concentration of compound at which the cell viability of the culture was preserved by 50% (‘50% inhibitory concentration’, IC50). The cell viability of a culture was determined by the uptake of soluble, yellow 3-[4,5-dimethylthiazol-2-yl]-2,5-diphenyltetrazolium bromide (MTT) and its reduction to a purple insoluble formazan salt. After solubilization, spectrophotometric methods were employed to measure the amount of formazan product.
MT4 cells were prepared to be in logarithmic-phase growth and a total of 2×10^6 cells infected with the HXB2-strain of HIV at a multiplicity of 0.0001 infectious units of virus per cell in a total volume of between 200-500 microlitres. The cells were incubated with virus for one h at 37° C. before removal of virus. The cells are then washed in 0.01 M phosphate buffered saline, pH 7.2 before being resuspensed in culture medium for incubation in culture with serial dilutions of test compound. The culture medium used was RPMI 1640 without phenol red, supplemented with penicillin, streptomycin, L-glutamine and 10% fetal calf serum (GM10).
Test compounds were prepared as 2 mM solutions in dimethyl sulphoxide (DMSO). Four replicate, serial 2-fold dilutions in GM10 were then prepared and 50 microlitres amounts placed in 96-well plates over a final nanomolar concentration range of 625-1.22. Fifty microlitres GM10 and 3.5×10^4 infected cells were then added to each well. Control cultures containing no cells (blank), uninfected cells (100% viability; 4 replicates) and infected cells without compound (total virus-mediated cell death; 4 replicates) were also prepared. The cultures were then incubated at 37° C. in a humidified atmosphere of 5% CO2 in air for […].
A fresh solution of 5 mg/ml MTT was prepared in 0.01 M phosphate buffered saline, pH 7.2 and 20 microlitres added to each culture. The cultures were further incubated as before for 2 h. They were then mixed by pipetting up and down and 170 microlitres of Triton X-100 in acidified isopropanol (10% v/v Triton X-100 in 1:250 mixture of concentrated HCl in isopropanol). When the formazan deposit was fully solubilized by further mixing, the absorbance (OD) of the cultures was measured at 540 nm and 690 nm wavelength (690 nm readings were used as blanks for artefacts between wells). The percent protection for each treated culture was then calculated from the equation: [formula]
The IC50 was then obtained from graph plots of percent protection versus log10 drug concentration.

HIV-1 RT = HIV-1 RT (Human immunodeficiency virus type 1 group M subtype B, UniProt P04585); experiment: HIV-1 Reverse Transcriptase Assay: Inhibitor IC50 Determination; assay type: biochemical; conditions: purified recombinant enzyme, poly(rA)/oligo(dT)16 template-primer
Experimental: Assay Method: HIV-1 Reverse Transcriptase Assay: Inhibitor IC50 Determination
HIV-1 RT assay was carried out in 96-well Millipore filtermat NOB50 plates using purified recombinant enzyme and a poly(rA)/oligo(dT)16 template-primer in a total volume of 50 μL. The assay constituents were 50 mM Tris/HCl, 50 mM NaCl, 1 mM EDTA, 6 mM MgCl2, 5 μM dTTP, 0.1 μCi [^3H] dTTP, 5 μg/ml poly (rA) pre annealed to 2.5 μg/ml oligo (dT)16 and a range of inhibitor concentrations in a final concentration of 10% DMSO. Reactions were initiated by adding 5 nM HIV-1 RT and after incubation at 37° C. for 30 min, they were stopped by the addition of 50 μl ice cold 20% TCA and allowed to precipitate at 4° C. for 30 min. The precipitates were collected by applying vacuum to the plate and sequentially washing with 2×200 μl of 10% TCA and 2×200 μl 70% ethanol. Finally the plates were dried and radioactivity counted in a Wallac Microbeta 1450 after the addition of 15 μl scintillation fluid per well. IC50's were calculated by plotting % inhibition versus log10 inhibitor concentrations.

| Structure (SMILES) | IC50 [1] [nM] | IC50 (HIV-1 RT) [nM] |
| --- | --- | --- |
| CC(C)n1c(Sc2cc(Cl)cc(Cl)c2)c(CNCc2ccncc2)n(C)c1=O | 7 | 90 |
| CC(C)n1c(Sc2cc(Cl)cc(Cl)c2)c(COCc2ccncc2)n(C)c1=O | 4 | 171 |
| CC(C)n1c(Sc2ccccc2)c(CNCc2ccncc2)n(C)c1=O | 32 | 520 |
| CC(C)n1c(Sc2ccccc2)c(CNCc2ccccc2)n(C)c1=O | 44 | 730 |
| CC(C)n1c(Oc2cc(Cl)cc(Cl)c2)c(CNCc2ccncc2)n(C)c1=O | 108 | 2400 |
| CC(C)n1c(Sc2cc(Cl)cc(Cl)c2)c(CCc2ccccc2)n(C)c1=O |  | 1160 |
| CCC(C)Sc1c(CNCc2ccncc2)n(C)c(=O)n1C(C)C (centres unmarked) |  | 1910 |
| COc1cccc(Sc2c(CNCc3ccncc3)n(C)c(=O)n2C(C)C)c1 |  | 3340 |
| CC(C)n1c(Sc2cc(Cl)cc(Cl)c2)c(CO)n(C)c1=O |  | 10000 |
| Cn1c(COCc2ccccc2)c(Sc2cc(Cl)cc(Cl)c2)n(-c2ccccc2)c1=O |  | 10000 |
| CC(C)n1c(Sc2cc(Cl)cc(Cl)c2)c(/C=C/C#N)n(C)c1=O |  | 1920 |
| CCn1c(Cc2ccncc2)c(Sc2cc(Cl)cc(Cl)c2)n(C(C)C)c1=O |  | 649 |
| CC(C)n1c(Sc2cc(Cl)cc(Cl)c2)c(Cc2ccncc2)n(C)c1=O | 7 | 313 |
| CC(C)n1c(Sc2cc(Cl)cc(Cl)c2)c(COc2ccncc2)n(C)c1=O | 134 | 608 |
| CC(C)n1c(Sc2cc(Cl)cc(Cl)c2)c(COCc2cccnc2)n(C)c1=O | 5 | 115 |

— patent US6518293B2, “Anti-HIV imidazolone derivatives” (Hoffmann-La Roche Inc., priority 2000, dated 2003)
